This note sets out measurements from publication PMC5796017, “Enantiomeric Effect of D-Amino Acid Substitution on the Mechanism of Action of α-Helical Membrane-Active Peptides” (International Journal of Molecular Sciences, 2017).

Values after ≈ are worked out from the molar mass of the structure shown.

Series [1] in a line: RP-HPLC retention time as relative hydrophobicity. In kind it is physicochemical. To be noted: 25 °C, used by the paper as measure of relative hydrophobicity. The method, then:
The RP-HPLC retention time has been widely used to represent the relative hydrophobicity of peptides in many studies.The relative hydrophobicity of the peptides was determined by the RP-HPLC retention times at 25 °C. The change in hydrophobicity of the peptides caused by D-amino acid substitutions was mainly due to the disruption of the helical structure.

A short description of series [2]: Circular dichroism (CD) secondary structure. The class given is physicochemical. The following applies: for [θ]222, benign / [θ]222, 50% TFE: CD, 75 μM peptide, 25 °C; for [θ]222, benign: KP buffer (100 mM KCl, 50 mM KH2PO4/K2HPO4, pH 7.4); for [θ]222, 50% TFE / α-Helix (%), 50% TFE (relative helicity): KP buffer with 50% TFE; for α-Helix (%), 50% TFE (relative helicity) / α-Helix (%), benign: relative to molar ellipticity of V13K in 50% TFE; for α-Helix (%), benign: KP buffer. An excerpt: The influence of the amino acid substitutions on the peptide secondary structure were investigated using circular dichroism (CD) spectroscopy under benign conditions (KP buffer) and under conditions designed to mimic the hydrophobic environment of the membrane (KP buffer with 50% TFE). D-amino acid substitutions reduced the helicity of the peptide analogs relative to that of peptide V13K, in both KP buffer and KP buffer with 50% TFE. […] As shown in Table 2 and Figure S1, the values of the relative helicity of peptides with polar face substitutions are in the order of K14D (76.99%) > S11D/K14D (51.33%) > S11D/K14D/T15D (38.67%). Similarly, the relative helicity of the peptides with substitutions on the non-polar face follows the same trend: A12D (70.83%) > F9D/A12D (38.26%) > F9D/A12D/V16D (36.41%). Since the values of the relative helicity of the peptides with D-amino acid substitutions on the non-polar face were less than those peptide analogs with the same number of D-amino acid substitutions on the polar face, it is clear that the amino acid residues on the non-polar face may be more important for stabilizing the α-helical structure than residues on the polar face.
The secondary structures of the peptides were examined using a Jasco J-810 CD spectrometer (Jasco, Easton, MD, USA) at 25 °C as described previously. […] The mean residue molar ellipticities were calculated according to the equation [θ] = θ/10lCMn, in which, θ represents the ellipticity in millidegrees, l is the optical path length of the cuvette in centimeters, CM is the peptide concentration in mol/L, and n is the number of residues in the peptide. The mean residue molar ellipticities at 222 nm, [θ]222 (degree·cm^2·dmol^−1), were used to calculate the relative helical content of the peptides.

Another series concerns S. aureus ATCC25923. Put plainly: Antimicrobial activity, microtiter dilution MIC. To be noted: G+; MH medium, 5 × 10^5 CFU/mL, 37 °C, 24 h, triplicate. The class given is cell-based, Staphylococcus aureus. As for the experimental part: (§1) The antimicrobial activity of the peptides was determined by the standard microtiter dilution method and indicated as MIC (minimal inhibitory concentration) as described previously. Briefly, bacteria were cultured in Mueller–Hinton (MH) medium overnight at 37 °C, diluted to a final inoculum of 5 × 10^5 colony-forming units (CFU)/mL with MH and loaded into 96-well microtiter plates (90 μL/well) with serial dilution of peptides (10 μL/well), with a further incubation at 37 °C for 24 h. MIC was expressed as the lowest peptide concentration that inhibited the growth of bacteria. The antimicrobial assays were repeated in triplicate.

A further series relates to S. epidermidis ATCC12228. Put plainly: Antimicrobial activity, microtiter dilution MIC. In kind it is cell-based, Staphylococcus epidermidis. To be noted: G+; MH medium, 5 × 10^5 CFU/mL, 37 °C, 24 h, triplicate. The method, then:
as §1

The subject of a further series is P. aeruginosa ATCC27853. Put plainly: Antimicrobial activity, microtiter dilution MIC. The class given is cell-based, Pseudomonas aeruginosa. To be noted: G−; MH medium, 5 × 10^5 CFU/mL, 37 °C, 24 h, triplicate. As for the experimental part: as §1
For series [3], the system named is E. coli ATCC25922. Put plainly: Antimicrobial activity, microtiter dilution MIC. In kind it is cell-based, Escherichia coli. The following applies: G−; MH medium, 5 × 10^5 CFU/mL, 37 °C, 24 h, triplicate. As for the experimental part:
as §1

In series [4] the test system is human red blood (hRBC) cells. The series can be described thus: Hemolytic activity assay. The class given is cell-based. To be noted: for MHC (minimal hemolytic concentration): 2% human RBC in PBS, 37 °C, 2 h, absorbance 578 nm, triplicate. As for the experimental part: The […] of the peptides was measured by a hemolytic activity assay as described previously. Briefly, healthy human RBCs were collected using an anticoagulation tube with EDTAK2 and centrifuged at 1000 rpm for 5 min. The erythrocytes were washed three times, then diluted to a concentration of 2% in phosphate-buffered saline (PBS). The peptides were serially diluted in PBS and 70 μL of the peptide solutions and 2% RBC suspension were added simultaneously to each well of a 96-well plate (round bottom) for a further incubation at 37 °C for 2 h. Then, the plates were centrifuged for 10 min at 3000 rpm and the supernatant (90 μL) was transferred to a 96-well plate (flat bottom). The absorbance of the supernatant was measured on a microplate reader at 578 nm. Erythrocytes in PBS and distilled water were used as the negative (0%) and positive (100%) controls, respectively. The hemolytic activity was calculated as the percentage of experimental group over positive control (100%), after subtraction of negative control (0%). The hemolytic assays were repeated in triplicate.

The next series has as its system BxPC-3. Put plainly: MTT cell viability assay. The class given is cell-based, human. To be noted: BxPC-3, MTT, 24 h; mean ± SEM of three independent determinations. The method, then: (§2) HeLa, MIA PaCa-2, HPAC, and Bxpc-3 cells were maintained in Dulbecco’s modified Eagle medium) with 10% fetal bovine serum, penicillin (100 U/mL), and streptomycin ([…]) in a humid atmosphere at 37 °C with 5% CO2. The effect of the peptides on the survival of HeLa, MIA PaCa-2, HPAC, and Bxpc-3 cells was determined by 3-(4,5-dimethyl-2-thiazolyl)-2,5-diphenyl-2H-tetrazolium bromide (MTT) assay, as described in a previous study. Briefly, cells were seeded in 96-well plates at a density of 5000 per well. After overnight incubation, cells were incubated, in the absence, or presence of various concentrations of peptides for 24 h. Then, the formazan crystals formed by MTT were dissolved with dimethyl sulfoxide (DMSO) and the absorbance was determined at 492 nm with a microplate reader (GF-M3000; Gaomi Caihong Analytical Instruments Co., Shandong, China). The results were expressed as IC50 values, representing the concentration at which cell viability was reduced by 50%. The cytotoxicity assays were repeated in triplicate.
In general terms: Formazan colour is commonly taken as a measure of viable cells.

The subject of a further series is HPAC. The series can be described thus: MTT cell viability assay. In kind it is cell-based, human. The following applies: 24 h, mean ± SEM of three independent determinations. The method, then:
as §2

In the next series the test system is HeLa. Put plainly: MTT cell viability assay. The class given is cell-based, human. To be noted: 24 h, mean ± SEM of three independent determinations. As for the experimental part: as §2
In another series the test system is MIA PaCa-2. Put plainly: MTT cell viability assay. The class given is cell-based, human. The following applies: MIA PaCa-2, MTT, 24 h; mean ± SEM of three independent determinations. The method, then:
as §2

Series [5] has as its system E. coli ATCC25922. The series can be described thus: Outer membrane permeability assay (NPN uptake). The class given is cell-based, Escherichia coli. The following applies: 16 μM peptide, 10 min, excitation 350 nm, emission 420 nm. An excerpt: To explore the potential role of the helicity of the peptides in damaging cell membranes, we investigated the disruption of the outer membrane of Escherichia coli (E. coli) by quantifying the fluorescence intensity of 1-N-phenylnaphthylamine (NPN), which is a hydrophobic fluorescent probe. The intensity of NPN is weak in a hydrophilic environment. The fluorescence intensity of NPN gradually increases as it is exposed to a more hydrophobic environment due to damage to the bacterial outer membrane by MAPs.
The outer membrane permeability of the peptides against E. coli ATCC25922 was evaluated using the hydrophobic fluorescent probe NPN, as performed previously. In brief, E. coli was cultured in LB medium at 37 °C until the absorbance of the bacterial suspension at 600 nm was 0.4–0.6, the bacterial pellet was collected by centrifugation and resuspended in a reaction buffer (pH 7.4, 5 mM HEPES, 5 mM NaN3, 0.25 mM NPN) until the absorbance at 600 nm was 0.5. Then, an aliquot of the peptide sample and the bacterial suspension were co-incubated to give a final peptide concentration of 16 μM. The same volume of reaction buffer was used as the negative control. A Shimadzu RF-5301 PC fluorescent spectrometer (excitation wavelength of 350 nm, emission wavelength of 420 nm) was used to collect data continuously for 10 min.

A word on the MIC: it is the smallest concentration in the dilution series that meets the test's criterion for growth inhibition. Read a high MIC as a less susceptible organism. For orientation: IC50 means the concentration needed to halve the response being measured. The low end stands for inhibition by little substance, the high end for a need for much substance. As to `CC[C@H](C)[C@H](NC(=O)[C@H](C)NC(=O)[C@H](CCCCN)NC(=O)[C@H](CC(C)C)NC(=O)[C@H](C)NC(=O)[C@@H](NC(=O)[C@H](Cc1c[nH]cn1)NC(=O)[C@H](CC(C)C)NC(=O)[C@@H](NC(=O)[C@@H](NC(=O)[C@@H](CCCCN)NC(=O)[C@H](CCCCN)NC(=O)[C@H](C)NC(=O)[C@H](CO)NC(=O)[C@H](CCCCN)NC(=O)[C@H](Cc1ccccc1)NC(=O)[C@@H](NC(=O)[C@H](CCCCN)NC(=O)[C@H](CC(C)C)NC(=O)[C@H](Cc1ccccc1)NC(=O)[C@H](CO)NC(=O)[C@H](CCCCN)NC(=O)[C@H](Cc1c[nH]c2ccccc12)NC(=O)[C@H](CCCCN)NC(C)=O)[C@@H](C)O)[C@@H](C)O)C(C)C)[C@@H](C)O)C(=O)N[C@@H](CO)C(=O)N[C@@H](CO)C(N)=O` [Peptide K14D], the “tR (RP-HPLC retention time), relative hydrophobicity” value in series [1] turned out to be 41.93 min. In addition, the “[θ]222, benign” value in [2] was −2223.13 degree·cm^2·dmol^−1. Further, in [2], the “[θ]222, 50% TFE” value was −38,897.2 degree·cm^2·dmol^−1. Moreover, the “α-Helix (%), 50% TFE (relative helicity)” value in series [2] came out at 76.99%. Further, the “α-Helix (%), benign” value in series [2] is given as 4.4%. Besides, the minimum inhibitory concentration (MIC) is 32 µM (≈ 95.7 µg/mL) in the series with S. aureus ATCC25923, 16 µM (≈ 47.9 µg/mL) in the series with S. epidermidis ATCC12228, 16 µM (≈ 47.9 µg/mL) against P. aeruginosa ATCC27853 and 32 µM (≈ 95.7 µg/mL) against E. coli ATCC25922 [3]. Also, the “MHC (minimal hemolytic concentration)” value in series [4] was 125 µM. Also, the half-inhibitory concentration (IC50) was found to be 20 ± 0.8 µM with BxPC-3, 7.2 ± 5.2 µM in the series on HPAC, 15.6 ± 4.1 µM in the series on HeLa and 17.9 ± 2.3 µM in the series with MIA PaCa-2. Besides, in the series with E. coli ATCC25922 [5], the “Outer membrane permeabilization, NPN fluorescence intensity” value was “enhanced”.

For the molecule `CC[C@H](C)[C@H](NC(=O)[C@H](C)NC(=O)[C@H](CCCCN)NC(=O)[C@H](CC(C)C)NC(=O)[C@H](C)NC(=O)[C@@H](NC(=O)[C@H](Cc1c[nH]cn1)NC(=O)[C@H](CC(C)C)NC(=O)[C@H](NC(=O)[C@@H](NC(=O)[C@H](CCCCN)NC(=O)[C@H](CCCCN)NC(=O)[C@@H](C)NC(=O)[C@H](CO)NC(=O)[C@H](CCCCN)NC(=O)[C@H](Cc1ccccc1)NC(=O)[C@@H](NC(=O)[C@H](CCCCN)NC(=O)[C@H](CC(C)C)NC(=O)[C@H](Cc1ccccc1)NC(=O)[C@H](CO)NC(=O)[C@H](CCCCN)NC(=O)[C@H](Cc1c[nH]c2ccccc12)NC(=O)[C@H](CCCCN)NC(C)=O)[C@@H](C)O)[C@@H](C)O)C(C)C)[C@@H](C)O)C(=O)N[C@@H](CO)C(=O)N[C@@H](CO)C(N)=O` [A12D/V16D], the “tR (RP-HPLC retention time), relative hydrophobicity” value in series [1] was found to be 39.79 min. Moreover, the “[θ]222, benign” value in series [2] is recorded as −3435.72 degree·cm^2·dmol^−1. Also, in series [2], the “[θ]222, 50% TFE” value is recorded as −23,452.9 degree·cm^2·dmol^−1. In addition, in series [2], the “α-Helix (%), 50% TFE (relative helicity)” value is 46.42%. For the same molecule, the “α-Helix (%), benign” value in [2] was found to be 6.8%. The MIC in the series on S. aureus ATCC25923 amounted to 125 µM (≈ 374 µg/mL); against S. epidermidis ATCC12228 it was 125 µM (≈ 374 µg/mL); against P. aeruginosa ATCC27853 it was 32 µM (≈ 95.7 µg/mL); with E. coli ATCC25922 [3], 125 µM (≈ 374 µg/mL). Further, the “MHC (minimal hemolytic concentration)” value in [4] is above 500 µM. For the same molecule, the “Hemolytic activity compared with V13K” value in [4] (human red blood cells) is “much less hemolytic activity than V13K”. Moreover, the concentration for half-maximal inhibition (IC50) came out at 125 ± 5.9 µM in the series with BxPC-3, 41.4 ± 1.4 µM in the series with HPAC, 60.1 ± 1.2 µM with HeLa and 46.2 ± 3 µM in the series on MIA PaCa-2.
